The record followed here is US7534871B2, “Preparation and use of carbohydrate-based bicyclic ring structures with antimicrobial and cytostatic activity” (Kemin Pharma B.V.B.A., priority 2004, dated 2009).

Assay [1] relates to MRSA ATCC33591. Nature of the assay: Anti-bacterial activity, Bioscreen C growth curve: MRSA. Particulars: for activity at 25 ppm: Staphylococcus aureus, ATCC 33591 / LMG10147 / MRSA, 35° C., 16 hours, negative control = 100, read-out: % of growth at 25 PPM compared to the negative control, MRSA ATCC33591 LMG10147. The format is cell-based, methicillin-resistant Staphylococcus aureus (MRSA). As to the method:
(§1) For the determination of the anti-bacterial and anti-fungal activity the Bioscreen C Analyser Labsystems, Finland, was used. This is an automated reader-incubator. It measures growth continuously by vertical photometry (optical density), processes the data and provides a print out of the results. The area under the growth curve is automatically determined via the Biolink software.
(§2) The inoculum size of the bacteria is standardized to approximately 5×10^5 CFU/ml.
(§3) For bacteria, the 100-honey-well plates containing test chemical, Mueller-Hinton broth and inoculum (=sample) are incubated at 35° C. for 16 hours. Also wells without inoculum are incubated (=blanco). Yeasts are incubated 35° C. for 24 hours in RPMI 1640+MOPS buffer at 165 mM. Moulds also in RPMI 1640+MOPS buffer at 165 mM are incubated 25° C. for 5 days. All micro-organisms are screened against a known concentration of the reference antibiotics or antimycotics such as vancomycin, penicillin G, gentamicin or amphotericin B. The growth curve and the area under the growth curve can be determined using the Biolink software; this is illustrated in FIG. 1.
(§4) The area of the blanco is subtracted from the area of the sample, this number (delta) gives us an indication of the biological activity of the molecules tested and can be expressed as a % of growth at a specific dose compared to a negative control that has a value of 100, illustrated in FIG. 2. Screening of each dose of a specific compound is repeated 5 times. The dose used for all new molecules in all tests is 25 PPM or 25 μg/ml.
(§5) In Table 4 the results of the anti-bacterial activity is given for the new molecules. The micro-organisms used are Staphylococcus aureus, MRSA, VRE, Enterococcus faecalis, Salmonella typhimurium and Pseudomonas aeruginosa.

Assay [2] has as its system VRE ATCC700221. Nature of the assay: Anti-bacterial activity, Bioscreen C growth curve: VRE. The format is cell-based, vancomycin-resistant Enterococcus (VRE). To be noted: Enterococcus, 35° C., 16 hours, negative control = 100, read-out: % of growth at 25 PPM compared to the negative control, VRE ATCC700221. As to the method:
as §1, §2, §3, §4, §5

Assay [3] has as its system Microsporum gypseum IHEM 3999 - ATCC 14683. Nature of the assay: Anti-fungal activity, Bioscreen C growth curve: Microsporum gypseum (mold). The format is cell-based. To be noted: for activity at 25 ppm: Nannizzia gypsea, ATCC14683, 120 h, 25° C., 5 days, negative control = 100, read-out: % of growth at a dose of 25 PPM compared to the negative control, Microsporum gypseum IHEM 3999 - ATCC 14683. As to the method: as §1
The inoculum size of the mould is standardized to 0.4-5.0×10^4 CFU/ml.
as §3, §4
(§6) In Table 5 the anti-fungal activity is given for the new molecules. The micro-organisms used were Candida albicans (a typical yeast) and Microsporum gypseum (a typical mold).
(§7) Also for the determination of the anti-fungal activity the Bioscreen C Analyser Labsystems Oy, Finland was used. It measures growth continuously by vertical photometry (optical density), processes the data and provides a print out of the results. The area under the growth curve is automatically determined via the Biolink software.
(§8) The inoculum size of the yeast is standardized to 0.5-2.5×10^3 CFU/ml. The inoculum size of the mould is standardized to 0.4-5.0×10^4 CFU/ml. Yeasts are incubated 35° C. for 24 hours in RPMI 1640+MOPS buffer at 165 mM. Moulds also in RPMI 1640+MOPS buffer at 165 mM are incubated 25° C. for 5 days.
(§9) As a control, all micro-organisms are screened against some reference antibiotics with known MIC. Screening of each dose of a specific compound is repeated 5 times.

Assay [4] relates to E. faecalis ATTC29212 LMG 8222. Nature of the assay: Anti-bacterial activity, Bioscreen C growth curve: E. faecalis. The format is cell-based. Particulars: Enterococcus faecalis, LMG8222, 35° C., 16 hours, negative control = 100, read-out: % of growth at 25 PPM compared to the negative control, E. faecalis ATTC29212 LMG 8222. The procedure: as §1, §2, §3, §4, §5
Assay [5] deals with S. typhimurium ATTC700408. Put plainly: Anti-bacterial activity, Bioscreen C growth curve: S. typhimurium. The format is cell-based. Particulars: Salmonella enterica, LMG16217 / TYPHIMURIUM, 35° C., 16 hours, negative control = 100, read-out: % of growth at 25 PPM compared to the negative control, S. typhimurium ATTC700408 LMG16217. As to the method:
as §1, §2, §3, §4, §5

Assay [6] has as its system Candida albicans IHEM 10284 - ATCC 24433. Put plainly: Anti-fungal activity, Bioscreen C growth curve: Candida albicans (yeast). The format is cell-based. Particulars: Candida albicans, ATCC24433; 25 PPM; 35° C., 24 hours; negative control = 100; read-out: % of growth at a dose of 25 PPM compared to the negative control, Candida albicans IHEM 10284 - ATCC 24433. The procedure:
as §1
The inoculum size of the yeast is standardized to 0.5-2.5×10^3 CFU/ml.
as §3, §4, §6, §7, §8, §9

Assay [7] deals with P. aeruginosa ATCC27853 LMG16217. Nature of the assay: Anti-bacterial activity, Bioscreen C growth curve: P. aeruginosa. The format is cell-based, Pseudomonas aeruginosa. To be noted: Pseudomonas aeruginosa; 25 PPM; 35° C., 16 hours; negative control = 100; read-out: % of growth at 25 PPM compared to the negative control, P. aeruginosa ATCC27853 LMG16217. The procedure: as §1, §2, §3, §4, §5

Assay [8] deals with S. aureus ATTC29213 LMG10147. Nature of the assay: Anti-bacterial activity, Bioscreen C growth curve: S. aureus. The format is cell-based. To be noted: Staphylococcus aureus, 35° C., 16 hours, negative control = 100, read-out: % of growth at 25 PPM compared to the negative control, S. aureus ATTC29213 LMG10147. As to the method: as §1, §2, §3, §4, §5

Each structure is given as a SMILES string.

In the case of `CO[C@H]1[C@@H]2OC(=O)CC/C=C/CCC(=O)OC[C@H]2OC[C@@H]1OC` [KPE00001006], the activity at 25 ppm came to 99.7% in assay [1]; 96.5% in assay [2]; 62% in assay [3]; 92.5% in assay [4]; 94.6% in assay [5]; 93.1% in assay [6]. The activity at 25 ppm in assay [7] worked out at 87.3%; in assay [8], 94.7%.

As to `CO[C@@H]1[C@@H](OC)[C@H](Sc2ccccc2)O[C@@H]2COC(=O)CCC(O)C(O)CCC(=O)O[C@@H]12` (stereo partly shown) [KPE00001007], the activity at 25 ppm in assay [1] stood at 97.8%; in assay [2], 93%; in assay [3] it was 76%; in assay [4], 97%; in assay [5] it was 89.7%; in assay [6] it was 94.7%. Besides, the activity at 25 ppm is 86.2% in assay [7] and 94.9% in assay [8].

On to `CO[C@@H]1[C@@H](OC)[C@H](Sc2ccccc2)O[C@@H]2COCCC/C=C/CCCO[C@@H]12` [KPE00001009.1], for which the activity at 25 ppm in assay [1] was determined as 107%; in assay [2], 82%; in assay [3] it was 60%; in assay [4] it was 87.5%; in assay [5], 90.1%; in assay [6] it was 93.9%. Moreover, the activity at 25 ppm in assay [7] is 91.6%; in assay [8], 98.3%.

For the molecule `CO[C@@H]1[C@@H](OC)[C@H](Sc2ccccc2)O[C@@H]2COCCC/C=C\CCCO[C@@H]12` [KPE00001009.2], the activity at 25 ppm in assay [1] came to 111%; in assay [2] it was 86.4%; in assay [3] it was 54%; in assay [4], 85.5%; in assay [5], 90.1%; in assay [6], 103%. Besides, the activity at 25 ppm in assay [7] was found to be 67.6%; in assay [8] it was 100%. In addition, the “anti-mold activity, in words” value in assay [3] (conclusion in text on Table 5) is recorded as “best anti-mold activity”.

As to `CO[C@H]1[C@@H]2OC(=O)CCCCCCC(=O)OC[C@H]2OC[C@@H]1OC` [KPE00001010], the activity at 25 ppm in assay [1] was determined as 110%; in assay [2], 93%; in assay [3], 60%; in assay [4], 90.6%; in assay [5], 88.8%; in assay [6] it was 95.5%. Besides, the activity at 25 ppm in assay [7] was 80.7%; in assay [8], 102%.

Turning to `CO[C@@H]1[C@@H](OC)[C@H](O)[C@@H](CO)O[C@H]1Sc1ccccc1` [KPE00001011], the activity at 25 ppm was determined as 90.5% in assay [1]; 79% in assay [2]; 76.4% in assay [3]; 89% in assay [4]; 92.1% in assay [5]; 79.3% in assay [6]. Besides, the activity at 25 ppm amounted to 85% in assay [7] and 89% in assay [8].

Turning to `CO[C@@H]1[C@@H](OC)[C@H](O)[C@@H](CO)O[C@H]1Cc1ccccc1` [KPE00001020], the activity at 25 ppm was found to be 99% in assay [1]; 99% in assay [2]; 78% in assay [3]; 98.4% in assay [4]; 92.3% in assay [5]; 91% in assay [6]. Also, the results for the activity at 25 ppm in assay [7] and in assay [8] were 94.4% and 97.9%, respectively.

Turning to `O=C1CC/C=C/CCC(=O)O[C@H]2[C@H](OCc3ccccc3)[C@@H](OCc3ccccc3)[C@H](Sc3ccccc3)O[C@@H]2CO1` [KPE00001037], the activity at 25 ppm worked out at 107% in assay [1]; 90% in assay [2]; 73% in assay [3]; 97.6% in assay [4]; 91% in assay [5]; 87.4% in assay [6]. The activity at 25 ppm is 89.3% in assay [7] and 98.5% in assay [8].

Turning to `CO[C@@H]1[C@@H](OC)[C@H](c2ccccc2)O[C@@H]2COC(=O)CCC3OC3CCC(=O)O[C@@H]12` (stereo partly shown) [KPE00001039], the activity at 25 ppm in assay [1] came to 102%; in assay [2], 93%; in assay [3], 77%; in assay [4], 94.1%; in assay [5] it was 97%; in assay [6], 96.4%. The figures for the activity at 25 ppm in assay [7] and in assay [8] were 91.3% and 97.7%, respectively.

With `CO[C@@H]1[C@@H](OC)[C@H](c2ccccc2)O[C@@H]2COC(=O)CCC=CCCC(=O)O[C@@H]12` [KPE00001040], the activity at 25 ppm turned out to be 99.7% in assay [1]; 83.4% in assay [2]; 64% in assay [3]; 85.1% in assay [4]; 89% in assay [5]; 101% in assay [6]. In addition, the activity at 25 ppm in assay [7] is 78.5%; in assay [8], 94%.

For `CO[C@@H]1[C@@H](OC)[C@H](Sc2ccccc2)O[C@@H]2CNC(=O)CCC=CCCC(=O)O[C@@H]12` [KPE00001041], the activity at 25 ppm in assay [1] was 75.6%; in assay [2] it was 93%; in assay [3] it was 81%; in assay [4], 68.2%; in assay [5], 96.6%; in assay [6] it was 78.1%. Further, the values for the activity at 25 ppm in assay [7] and in assay [8] were 83.3% and 56.7%, respectively. For the same molecule, in assay [1] (conclusion on Table 4), the “anti-bacterial activity against gram-positive bacteria including MRSA, in words” value is given as “good anti-bacterial activity”.

`CO[C@@H]1[C@@H](OC)[C@H](Sc2ccccc2)O[C@@H]2CNC(=O)CC/C=C/CCCO[C@@H]12` [KPE00001042]: the activity at 25 ppm in assay [1] is 104%; in assay [2] it was 96%; in assay [3], 79%; in assay [4], 93.3%; in assay [5] it was 98%; in assay [6], 90.3%. For the same molecule, the results for the activity at 25 ppm in assay [7] and in assay [8] were 94.7% and 97%, respectively.

In the case of `CO[C@H]1[C@H](OC)[C@H](OC)COC/C=C/COC[C@H]2OC[C@H](OC)[C@@H](OC)[C@@H]2OC(=O)NC[C@@H]1OC` [KPE00001056], the activity at 25 ppm in assay [1] came out at 113%; in assay [2], 91%; in assay [3], 77%; in assay [4], 111%; in assay [5] it was 93.7%; in assay [6] it was 101%. The activity at 25 ppm was found to be 106% in assay [7] and 105% in assay [8].
